Source: patent US10980889B1 (Revolution Medicines, Inc., priority 2018, dated 2021)

How the values were obtained:
P-P70S6K (T389) = test: Cell based AlphaLISA assay, inhibition of P-P70S6K (T389) in MDA-MB-468 cells (mTORC1 substrate); details: Homo sapiens, 4 h, AlphaLisa, two to four hours at 37° C., read-out: pIC50 for Inhibition of mTORC1 and mTORC2 Substrate Phosphorylation p-P70S6K-(T389) (converted)
How it was run: (§1)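 In MDA-MB-468 cells, phosphorylation of 4EBP1 (Thr37/46), P70S6K (Thr389) and AKT (Ser473) was measured after incubation with inhibitor by AlphaLISA SureFire Ultra on cell lysates, in duplicate. IC50 values came from control-normalized concentration-response regression.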

P-4E-BP1 (T37/46) = test: Cell based AlphaLISA assay, inhibition of P-4E-BP1 (T37/46) in MDA-MB-468 cells (mTORC1 substrate); details: Homo sapiens, 4 h, AlphaLisa, two to four hours at 37° C., read-out: pIC50 for Inhibition of mTORC1 and mTORC2 Substrate Phosphorylation P-4E-BP1-(T37/46) (converted)
How it was run: as §1

P-Akt (S473) = test: Cell based AlphaLISA assay, inhibition of P-Akt (S473) in MDA-MB-468 cells (mTORC2 substrate); details: Homo sapiens, 4 h, AlphaLisa, two to four hours at 37° C., read-out: pIC50 for Inhibition of mTORC1 and mTORC2 Substrate Phosphorylation p-AKT1/2/3-(S473) (converted)
How it was run: as §1

Structure (SMILES)	IC50 (P-P70S6K (T389)) [nM]	IC50 (P-4E-BP1 (T37/46)) [nM]	IC50 (P-Akt (S473)) [nM]
CO[C@H]1C[C@@H]2CC[C@@H](C)[C@@](O)(O2)C(=O)C(=O)N2CCCC[C@H]2C(=O)O[C@H]([C@H](C)C[C@@H]2CC[C@@H](OC(=O)NCc3cnc(N4CCN(C(=O)CCOCCN5CCN(c6ncc(C(=O)NCCS(=O)(=O)c7ccc(C(=O)N8CCOc9ccc(-c%10ccc(N)nc%10)cc9C8)c(C)c7)cn6)CC5)CC4)nc3)[C@H](OC)C2)CC(=O)[C@H](C)/C=C(\C)[C@@H](O)[C@@H](OC)C(=O)[C@H](C)C[C@H](C)/C=C/C=C/C=C/1C [Example 124]	< 1	< 3.16	3.16 to 31.6
CO[C@H]1C[C@@H]2CC[C@@H](C)[C@@](O)(O2)C(=O)C(=O)N2CCCC[C@H]2C(=O)O[C@H]([C@H](C)C[C@@H]2CC[C@@H](OC(=O)NCc3cnc(N4CCN(C(=O)CCOCCN5CCN(c6ncc(C(=O)NCCS(=O)(=O)c7ccc(C(=O)N8CCOc9ccc(-c%10ccc(N)nc%10)cc9C8)c(C)c7)cn6)CC5)CC4)nc3)[C@H](OC)C2)C[C@@H](O)[C@H](C)/C=C(\C)[C@@H](O)[C@@H](OC)C(=O)[C@H](C)C[C@H](C)/C=C/C=C/C=C/1C [Example 125]	< 1	< 3.16	3.16 to 31.6
CO[C@H]1C[C@@H]2CC[C@@H](C)[C@@](O)(O2)C(=O)C(=O)N2CCCC[C@H]2C(=O)O[C@H]([C@H](C)C[C@@H]2CC[C@@H](OC(=O)NCc3cnc(N4CCN(C(=O)CCOCCOCCN5CCN(c6ncc(C(=O)N7CCc8cc(Cn9nc(-c%10ccc%11[nH]ccc%11c%10)c%10c(N)ncnc%109)ccc8C7)cn6)CC5)CC4)nc3)[C@H](OC)C2)CC(=O)[C@H](C)/C=C(\C)[C@@H](O)[C@@H](OC)C(=O)[C@H](C)C[C@H](C)/C=C/C=C/C=C/1C [Example 126]	< 1	3.16 to 31.6	> 1000
CO[C@H]1C[C@@H]2CC[C@@H](C)[C@@](O)(O2)C(=O)C(=O)N2CCCC[C@H]2C(=O)O[C@H]([C@H](C)C[C@@H]2CC[C@@H](OC(=O)N3CCc4nc(N5CCN(C(=O)CCOCCN6CCN(c7ncc(C(=O)N8CCc9cc(Cn%10nc(-c%11ccc%12[nH]ccc%12c%11)c%11c(N)ncnc%11%10)ccc9C8)cn7)CC6)CC5)ncc4C3)[C@H](OC)C2)CC(=O)[C@H](C)/C=C(\C)[C@@H](O)[C@@H](OC)C(=O)[C@H](C)C[C@H](C)/C=C/C=C/C=C/1C [Example 127]	< 1	3.16 to 31.6	> 1000
CO[C@H]1C[C@@H]2CC[C@@H](C)[C@@](O)(O2)C(=O)C(=O)N2CCCC[C@H]2C(=O)O[C@H]([C@H](C)C[C@@H]2CC[C@@H](OC(=O)NCc3cnc(N4CCN(CCOCCN5CCN(c6ncc(C(=O)N7CCc8cc(Cn9nc(-c%10ccc%11oc(N)nc%11c%10)c%10c(N)ncnc%109)ccc8C7)cn6)CC5)CC4)nc3)[C@H](OC)C2)C[C@@H](OC)[C@H](C)/C=C(\C)[C@@H](O)[C@@H](OC)C(=O)[C@H](C)C[C@H](C)/C=C/C=C/C=C/1C [Example 128]	< 1	3.16 to 31.6	31.6 to 1000
CO[C@H]1C[C@@H]2CC[C@@H](C)[C@@](O)(O2)C(=O)C(=O)N2CCCC[C@H]2C(=O)O[C@H]([C@H](C)C[C@@H]2CC[C@@H](OC(=O)N3CCc4nc(N5CCN(CCOCCN6CCN(c7ncc(C(=O)N8CCc9cc(Cn%10nc(-c%11ccc%12oc(N)nc%12c%11)c%11c(N)ncnc%11%10)ccc9C8)cn7)CC6)CC5)ncc4C3)[C@H](OC)C2)C[C@@H](OC)[C@H](C)/C=C(\C)[C@@H](O)[C@@H](OC)C(=O)[C@H](C)C[C@H](C)/C=C/C=C/C=C/1C [Example 129]	< 1	< 3.16	> 1000
CO[C@H]1C[C@@H]2CC[C@@H](C)[C@@](O)(O2)C(=O)C(=O)N2CCCC[C@H]2C(=O)O[C@H]([C@H](C)C[C@@H]2CC[C@@H](OC(=O)NCc3cnc(N4CCN(CCOCCN5CCN(c6ncc(C(=O)N7CCc8cc(Cn9nc(-c%10ccc%11[nH]ccc%11c%10)c%10c(N)ncnc%109)ccc8C7)cn6)CC5)CC4)nc3)[C@H](OC)C2)CC(=O)[C@H](C)/C=C(\C)[C@@H](O)[C@@H](OC)C(=O)[C@H](C)C[C@H](C)/C=C/C=C/C=C/1C [Example 130]	< 1	< 3.16	> 1000
CO[C@H]1C[C@@H]2CC[C@@H](C)[C@@](O)(O2)C(=O)C(=O)N2CCCC[C@H]2C(=O)O[C@H]([C@H](C)C[C@@H]2CC[C@@H](OC(=O)N3CCc4nc(N5CCN(CCOCCN6CCN(c7ncc(C(=O)N8CCc9cc(Cn%10nc(-c%11ccc%12[nH]ccc%12c%11)c%11c(N)ncnc%11%10)ccc9C8)cn7)CC6)CC5)ncc4C3)[C@H](OC)C2)CC(=O)[C@H](C)/C=C(\C)[C@@H](O)[C@@H](OC)C(=O)[C@H](C)C[C@H](C)/C=C/C=C/C=C/1C [Example 131]	< 1	< 3.16	3.16 to 31.6
CO[C@H]1C[C@@H]2CC[C@@H](C)[C@@](O)(O2)C(=O)C(=O)N2CCCC[C@H]2C(=O)O[C@H]([C@H](C)C[C@@H]2CC[C@@H](OC(=O)NCc3cnc(N4CCN(C(=O)CCOCCN5CCN(C(=O)CCC(=O)N6CCc7cc(Cn8nc(-c9ccc%10oc(N)nc%10c9)c9c(N)ncnc98)ccc7C6)CC5)CC4)nc3)[C@H](OC)C2)C[C@@H](O)[C@H](C)/C=C(\C)[C@@H](O)[C@@H](OC)C(=O)[C@H](C)C[C@H](C)/C=C/C=C/C=C/1C [Example 132]	< 1	< 3.16	3.16 to 31.6
CO[C@H]1C[C@@H]2CC[C@@H](C)[C@@](O)(O2)C(=O)C(=O)N2CCCC[C@H]2C(=O)O[C@H]([C@H](C)C[C@@H]2CC[C@@H](OC(=O)NCc3cnc(N4CCN(C(=O)CCOCCN5CCN(C(=O)CCC(=O)N6CCc7cc(Cn8nc(-c9ccc%10oc(N)nc%10c9)c9c(N)ncnc98)ccc7C6)CC5)CC4)nc3)[C@H](OC)C2)C[C@@H](OC)[C@H](C)/C=C(\C)[C@@H](O)[C@@H](OC)C(=O)[C@H](C)C[C@H](C)/C=C/C=C/C=C/1C [Example 133]	< 1	< 3.16	3.16 to 31.6
CO[C@H]1C[C@@H]2CC[C@@H](C)[C@@](O)(O2)C(=O)C(=O)N2CCCC[C@H]2C(=O)O[C@H]([C@H](C)C[C@@H]2CC[C@@H](OC(=O)NCc3cnc(N4CCN(C(=O)CCOCCN5CCN(c6ncc(C(=O)N7CCc8cc(Cn9nc(-c%10ccc%11oc(N)nc%11c%10)c%10c(N)ncnc%109)ccc8C7)cn6)CC5)[C@@H](C(=O)O)C4)nc3)[C@H](OC)C2)C[C@@H](OC)[C@H](C)/C=C(\C)[C@@H](O)[C@@H](OC)C(=O)[C@H](C)C[C@H](C)/C=C/C=C/C=C/1C [Example 134]	< 1	< 3.16	> 1000
CO[C@H]1C[C@@H]2CC[C@@H](C)[C@@](O)(O2)C(=O)C(=O)N2CCCC[C@H]2C(=O)O[C@H]([C@H](C)C[C@@H]2CC[C@@H](OC(=O)NCc3cnc(N4CCN(C(=O)CCOCCN5CCN(c6ncc(C(=O)N7CCc8cc(Cn9nc(-c%10cnc%11[nH]ccc%11c%10)c%10c(N)ncnc%109)ccc8C7)cn6)CC5)[C@@H](C(=O)O)C4)nc3)[C@H](OC)C2)CC(=O)[C@H](C)/C=C(\C)[C@@H](O)[C@@H](OC)C(=O)[C@H](C)C[C@H](C)/C=C/C=C/C=C/1C [Example 135]	< 1	> 1000	> 1000
CO[C@H]1C[C@@H]2CC[C@@H](C)[C@@](O)(O2)C(=O)C(=O)N2CCCC[C@H]2C(=O)O[C@H]([C@H](C)C[C@@H]2CC[C@@H](O)[C@H](OC)C2)CC(=O)[C@H](C)/C=C(\C)[C@@H](OC(=O)NCc2cnc(N3CCN(C(=O)CCOCCN4CCN(c5ncc(C(=O)N6CCc7cc(Cn8nc(-c9ccc%10oc(N)nc%10c9)c9c(N)ncnc98)ccc7C6)cn5)CC4)CC3)nc2)[C@@H](OC)C(=O)[C@H](C)C[C@H](C)/C=C/C=C/C=C/1C [Example 136]	< 1	3.16 to 31.6	3.16 to 31.6
CO[C@H]1C[C@@H]2CC[C@@H](C)[C@@](O)(O2)C(=O)C(=O)N2CCCC[C@H]2C(=O)O[C@H]([C@H](C)C[C@@H]2CC[C@@H](OC(=O)NCc3cnc(N4CCN(C(=O)CCOCCN5CCN(c6ncc(C(=O)N7CCc8cc(Cn9nc(-c%10ccc%11oc(N)nc%11c%10)c%10c(N)ncnc%109)ccc8C7)cn6)CC5)CC4)nc3)[C@H](OC)C2)C[C@H](N=[N+]=[N-])[C@H](C)/C=C(\C)[C@@H](O)[C@@H](OC)C(=O)[C@H](C)C[C@H](C)/C=C/C=C/C=C/1C [Example 137]	< 1	< 3.16	3.16 to 31.6
CO[C@H]1C[C@@H]2CC[C@@H](C)[C@@](O)(O2)C(=O)C(=O)N2CCCC[C@H]2C(=O)O[C@H]([C@H](C)C[C@@H]2CC[C@@H](OC(=O)NCc3cnc(N4CCN(c5ncc(C(=O)N6CCN(c7ncc(C(=O)NCCCCn8nc(-c9ccc%10oc(N)nc%10c9)c9c(N)ncnc98)cn7)CC6)cn5)CC4)nc3)[C@H](OC)C2)CC(=O)[C@H](C)/C=C(\C)[C@@H](O)[C@@H](OC)C(=O)[C@H](C)C[C@H](C)/C=C/C=C/C=C/1C [Example 138]	< 1	< 3.16	< 3.16
CO[C@H]1C[C@@H]2CC[C@@H](C)[C@@](O)(O2)C(=O)C(=O)N2CCCC[C@H]2C(=O)O[C@H]([C@H](C)C[C@@H]2CC[C@@H](OC(=O)NCc3cnc(N4CCN(c5ncc(C(=O)N6CCN(c7ncc(C(=O)N8CCc9cc(Cn%10nc(-c%11ccc%12oc(N)nc%12c%11)c%11c(N)ncnc%11%10)ccc9C8)cn7)CC6)cn5)CC4)nc3)[C@H](OC)C2)CC(=O)[C@H](C)/C=C(\C)[C@@H](O)[C@@H](OC)C(=O)[C@H](C)C[C@H](C)/C=C/C=C/C=C/1C [Example 139]	< 1	< 3.16	31.6 to 1000
